Results on eleven molecules are retold here after ChEMBL document CHEMBL1201862, “PubChem BioAssay data set” (2004).

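Each compound was tested at five concentrations against cells in 96-well plates for 48 hours. GI50 is the concentration that inhibits growth by half.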 The source made the active and inactive calls. Cut-off read from the data, not from the text of the source: active = GI50 up to about 1.1 µM and inactive = higher.

Common to all, as to assay: NCI-60 cell line screen, 48 h
For test [1], the system named is ACHN.
The subject of test [2] is HOP-92.
In test [3] the test system is K562.
The test system of test [4] is KM12.
Test [5] has as its system MDA-N.
Test [6] deals with NCI-H23.
Test [7] relates to NCI-H522.
The test system of test [8] is NCI/ADR-RES.
For test [9], the system named is OVCAR-4.
Test [10] deals with OVCAR-8.
The subject of test [11] is SF-539.
For test [12], the system named is SK-MEL-5.
In test [13] the test system is SN12C.
The subject of test [14] is SNB-75.
Test [15] concerns SW-620.
Test [16] concerns UACC-257.
Test [17] relates to UACC-62.
In test [18] the test system is UO-31.
For test [19], the system named is PC-3.
Test [20] has as its system SK-MEL-2.

`CCOC(=O)/C(=C\NCC(O)c1ccccc1)c1nc2ccccc2[nH]1` (stereo not given): the GI50 in [1] is 11 µM (inactive); in test [2] it was 22.1 µM (inactive); in test [3] it was 19.8 µM (inactive); in [4] it was 21.6 µM (inactive); in [5], 27.5 µM (inactive); in test [6], 18.1 µM (inactive). Besides, the GI50 is 17.5 µM (inactive) in test [7]; 20.8 µM (inactive) in test [8]; 23.8 µM (inactive) in [9]; 23.2 µM (inactive) in test [10]; 21.1 µM (inactive) in test [11]; 11 µM (inactive) in test [12]. The GI50 in test [13] was 31.9 µM (inactive); in [14], 24.2 µM (inactive); in test [15], 31.4 µM (inactive); in test [16] it was 19.6 µM (inactive); in test [17], 14.2 µM (inactive); in [18], 0.103 µM (active).
For `O=C(O)CCC(/N=C(\C(=N\C(CCC(=O)O)C(=O)O)c1ccccc1)c1ccccc1)C(=O)O` (stereo not given), the GI50 in test [1], in test [3], in [4], in test [5], in [6] and in test [8] was > 100 µM (inactive) each time. Also, the GI50 in test [9], in test [10], in [19], in test [20], in test [13] and in [14] was > 100 µM (inactive) in each case. Also, the GI50 in [15], in [16], in test [17] and in test [18] was > 100 µM (inactive) in each case.
Regarding `Cn1c(=O)c2c(nc(N3CCOCC3)n2CCCNCC(O)c2ccc(O)c(O)c2)n(C)c1=O` (stereo not given), the GI50 in test [1], in test [2], in test [3], in test [4], in test [6] and in [7] was > 100 µM (inactive) throughout. Besides, the GI50 in [8] was > 100 µM (inactive); in [9] it was > 100 µM (inactive); in test [10], 25.4 µM (inactive); in test [19], > 100 µM (inactive); in test [11], > 100 µM (inactive); in test [20], > 100 µM (inactive). Besides, the GI50 in test [12] was > 100 µM (inactive); in test [13] it was 81.8 µM (inactive); in test [14], > 100 µM (inactive); in test [15], > 100 µM (inactive); in test [16] it was > 100 µM (inactive); in test [17], > 100 µM (inactive). In addition, the GI50 in test [18] is > 100 µM (inactive).
In the case of `CCN(CC)C(=S)SS(=O)(=O)c1ccc(F)cc1`, the GI50 in test [1] was 43.1 µM (inactive); in test [2], 31.2 µM (inactive); in test [3] it was 23.2 µM (inactive); in [4] it was 17.8 µM (inactive); in [5], 63.2 µM (inactive); in test [6], 76.4 µM (inactive). Also, the GI50 in [7] is 0.0552 µM (active); in test [8], 50.7 µM (inactive); in test [9] it was > 100 µM (inactive); in test [10], 32.1 µM (inactive); in test [11], 23 µM (inactive); in test [20] it was 56.4 µM (inactive). The GI50 is 7.41 µM (inactive) in test [12]; 34.5 µM (inactive) in [13]; 17.9 µM (inactive) in test [15]; 28.4 µM (inactive) in [16]; 19.9 µM (inactive) in test [17]; 27.7 µM (inactive) in test [18].
As for `CCOC(=O)CSc1nc(-c2ccccc2)c(C#N)c(=O)[nH]1`, the GI50 in [1] is > 100 µM (inactive); in [2], > 100 µM (inactive); in test [3], > 100 µM (inactive); in test [4], > 100 µM (inactive); in test [6] it was > 100 µM (inactive); in test [7], 21.4 µM (inactive). Moreover, the GI50 in [8], in test [9], in test [10], in test [19], in test [11] and in [20] was > 100 µM (inactive) throughout. Also, the GI50 in [12], in [13], in test [14], in [15], in test [16] and in test [17] was > 100 µM (inactive) each time. Moreover, the GI50 in test [18] is > 100 µM (inactive).
On to `CC1=CC(=O)c2ccc3c4ccccc4n(C)c3c2C1=O`, for which the GI50 in [1] was 55.6 µM (inactive); in test [2], > 46.5 µM (inactive); in test [3] it was 16.1 µM (inactive); in test [4] it was 34.4 µM (inactive); in [5], 16.6 µM (inactive); in test [6] it was 14 µM (inactive). The GI50 is 28.4 µM (inactive) in test [7]; > 100 µM (inactive) in [8]; 74 µM (inactive) in test [9]; 58.9 µM (inactive) in [10]; > 100 µM (inactive) in test [11]; 16.2 µM (inactive) in [20]. For the same molecule, the GI50 is 13.6 µM (inactive) in [12]; > 69 µM (inactive) in test [13]; 54.1 µM (inactive) in test [14]; 92.3 µM (inactive) in [15]; 46.3 µM (inactive) in test [16]; > 65.9 µM (inactive) in test [18].
As to `O=C1CCCc2c1c1c(n2Cc2ccccc2)-c2ccccc2C1=O`, the GI50 is 16 µM (inactive) in [1]; 26.9 µM (inactive) in test [2]; 13.9 µM (inactive) in test [3]; 17.9 µM (inactive) in test [4]; 14.9 µM (inactive) in [6]; 12.3 µM (inactive) in [7]. For the same molecule, the GI50 in [8] is 21.1 µM (inactive); in test [9], 14 µM (inactive); in test [10] it was 16.4 µM (inactive); in test [19], 27.4 µM (inactive); in test [11] it was 21.1 µM (inactive); in [20], 18.9 µM (inactive). Moreover, the GI50 in test [12] was 18.7 µM (inactive); in [13], 19.3 µM (inactive); in [14], 62.5 µM (inactive); in test [15] it was 32.3 µM (inactive); in [16], 17.3 µM (inactive); in test [17], 17.9 µM (inactive). Also, the GI50 in test [18] is 23.7 µM (inactive).
Take `CCOC(=O)CN1C(=O)NC(C)(c2ccccc2)C1=O` (stereo not given): the GI50 in [1], in [2], in test [3], in [4], in [6] and in test [7] was > 100 µM (inactive) throughout. Besides, the GI50 in [8], in [9], in test [10], in test [19], in test [11] and in [20] was > 100 µM (inactive) throughout. The GI50 in [12], in test [13], in test [14], in test [15], in test [16] and in [17] was > 100 µM (inactive) throughout. The GI50 in [18] is > 100 µM (inactive).
Regarding `Cc1cc(O)c(C(c2ccncc2)c2c(O)cc(C)[nH]c2=O)c(=O)[nH]1`, the GI50 in test [1], in [3], in [4], in [5], in test [6] and in [7] was > 100 µM (inactive) throughout. Besides, the GI50 in test [8], in [9], in [10], in test [19], in [12] and in [13] was > 100 µM (inactive) each time. In addition, the GI50 in test [16], in test [17] and in [18] was > 100 µM (inactive) in each case.
On to `CCCC/N=C(/c1ccccc1)N1CCOCC1`, for which the GI50 in test [1], in test [3], in test [4], in test [5], in [6] and in test [8] was > 100 µM (inactive) in each case. Moreover, the GI50 in [10], in [19], in test [11], in test [20], in [12] and in test [13] was > 100 µM (inactive) each time. The GI50 in test [14] was 1.25 µM (inactive); in [15], > 100 µM (inactive); in test [16], > 100 µM (inactive); in test [17], > 100 µM (inactive); in test [18] it was 97.7 µM (inactive).
Consider `COC1=NC(NC2OCC(O)C(O)C2O)=C(NC(C)=O)CN1C` (stereo not given), for which the GI50 in [1], in test [2], in test [3], in test [4], in [5] and in test [6] was > 100 µM (inactive) throughout. For the same molecule, the GI50 in [7], in test [8], in [9], in test [10], in test [11] and in test [20] was > 100 µM (inactive) in each case. Besides, the GI50 in test [12], in [14], in [15], in test [17] and in test [18] was > 100 µM (inactive) in each case.
